In patent US20220259202A1, “1-(4-(AMINOMETHYL)BENZYL)-2-BUTYL-2H-PYRAZOLO[3,4-C]QUINOLIN-4-AMINE DERIVATIVES AND RELATED COMPOUNDS AS TOLL-LIKE RECEPTOR (TLR) 7/8 AGONISTS, AS WELL AS ANTIBODY DRUG CONJUGATES THEREOF FOR USE IN CANCER THERAPY AND DIAGNOSIS” (SUTRO BIOPHARMA, INC., priority 2019, published 2022):

How the values were obtained:
[1] = molecular target: T1, mouse TLR13 (Mus musculus, UniProt Q6R5N8); experiment: HEK293 SEAP reporter assay, other TLRs (Biological Example 3); format: cell-based; details: 16 hrs, up to 1 μM
T1 construct: host or cells: HEK293
T1 sequence (Q6R5N8 69-991): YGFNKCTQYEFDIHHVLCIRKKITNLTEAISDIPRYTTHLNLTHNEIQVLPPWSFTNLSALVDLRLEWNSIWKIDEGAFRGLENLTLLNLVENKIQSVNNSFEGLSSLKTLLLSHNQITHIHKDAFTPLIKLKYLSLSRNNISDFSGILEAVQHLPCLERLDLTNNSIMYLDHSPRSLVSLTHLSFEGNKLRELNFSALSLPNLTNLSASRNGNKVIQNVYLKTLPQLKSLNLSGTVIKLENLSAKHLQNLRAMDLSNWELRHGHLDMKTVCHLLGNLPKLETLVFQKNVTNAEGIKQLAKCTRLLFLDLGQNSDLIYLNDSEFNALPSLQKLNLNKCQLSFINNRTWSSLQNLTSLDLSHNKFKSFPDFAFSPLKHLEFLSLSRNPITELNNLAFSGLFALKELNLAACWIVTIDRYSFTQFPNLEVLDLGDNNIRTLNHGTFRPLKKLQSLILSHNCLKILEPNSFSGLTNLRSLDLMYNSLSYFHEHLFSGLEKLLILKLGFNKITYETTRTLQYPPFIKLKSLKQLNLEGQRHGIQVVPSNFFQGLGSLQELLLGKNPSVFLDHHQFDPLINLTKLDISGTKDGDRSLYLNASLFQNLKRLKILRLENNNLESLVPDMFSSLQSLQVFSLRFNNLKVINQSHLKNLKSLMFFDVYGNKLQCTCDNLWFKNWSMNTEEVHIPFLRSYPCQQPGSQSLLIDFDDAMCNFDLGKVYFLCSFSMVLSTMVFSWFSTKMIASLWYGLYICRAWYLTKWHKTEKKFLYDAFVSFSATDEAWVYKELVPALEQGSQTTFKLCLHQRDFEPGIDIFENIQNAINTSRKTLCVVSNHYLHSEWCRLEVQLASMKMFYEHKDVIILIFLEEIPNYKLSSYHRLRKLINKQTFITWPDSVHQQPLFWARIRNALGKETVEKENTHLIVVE
Excerpt: (§1) In this example, the activity of the Compound 1 to stimulate different human and mouse TLR pathways was investigated on HEK293 cells transfected with inducible SEAP (secreted embryonic alkaline phosphatase) reporter genes and also expressing different human TLRs (TLR2, TLR3, TLR4, TLR5, TLR7, TLR8, TLRS) or mouse TLRs (TLR2, TLR3, TLR4, TLR5, TLR7, TLR8, TLR13). Compound A
(§2) HEK293 reporter cell lines were purchased from Invivogen and cell lines were maintained in manufacture recommended culture medium with required supplemental antibiotics. On the day of assay, the cells were harvested with Accutase and counted by the Vi-CELL Cell Viability Analyzers. Cells were re-suspended in HEK blue detection medium and a total of 10000 cells were seeded in each well of a 384-well flat bottom plate. […] Assay plates were cultured at 37° C. in a CO2 incubator for 16 hrs. HEK-Blue™ Detection medium changes to a purple/blue color in the presence of secreted SEAP, which can be detected by spectrophotometry at 620-655 nm. Data was fitted with non-linear regression analysis, using a log(inhibitor) vs. response-variable slope, 3-parameter fit with GraphPad Prism.

[2] = molecular target: T2, mouse TLR4 (Mus musculus, UniProt Q9JHF9+Q9QUK6); experiment: as above; format: cell-based; details: 16 hrs, up to 1 μM
T2 construct: host or cells: HEK293
T2 sequence (Q9QUK6 26-835): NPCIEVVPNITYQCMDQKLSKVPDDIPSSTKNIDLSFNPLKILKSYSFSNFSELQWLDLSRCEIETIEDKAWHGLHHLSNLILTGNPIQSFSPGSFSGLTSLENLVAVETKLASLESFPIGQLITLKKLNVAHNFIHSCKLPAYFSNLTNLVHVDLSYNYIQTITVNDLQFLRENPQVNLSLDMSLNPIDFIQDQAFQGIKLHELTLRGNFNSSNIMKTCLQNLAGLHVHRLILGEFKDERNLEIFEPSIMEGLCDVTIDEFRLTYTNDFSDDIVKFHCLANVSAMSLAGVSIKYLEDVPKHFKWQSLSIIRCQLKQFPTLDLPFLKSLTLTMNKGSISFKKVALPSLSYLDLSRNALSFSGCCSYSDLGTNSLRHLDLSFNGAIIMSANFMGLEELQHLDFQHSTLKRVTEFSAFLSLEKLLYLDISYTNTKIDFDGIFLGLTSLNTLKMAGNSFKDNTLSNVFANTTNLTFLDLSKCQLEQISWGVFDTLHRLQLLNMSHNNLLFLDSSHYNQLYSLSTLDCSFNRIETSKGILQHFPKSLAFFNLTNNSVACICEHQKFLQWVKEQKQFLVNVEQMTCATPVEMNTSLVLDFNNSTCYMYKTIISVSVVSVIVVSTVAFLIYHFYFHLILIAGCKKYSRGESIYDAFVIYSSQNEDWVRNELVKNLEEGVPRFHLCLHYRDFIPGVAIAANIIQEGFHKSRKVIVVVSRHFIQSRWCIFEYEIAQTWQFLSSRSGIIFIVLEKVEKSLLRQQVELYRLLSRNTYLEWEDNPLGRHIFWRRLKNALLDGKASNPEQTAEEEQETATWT
T2 sequence (Q9JHF9 19-160): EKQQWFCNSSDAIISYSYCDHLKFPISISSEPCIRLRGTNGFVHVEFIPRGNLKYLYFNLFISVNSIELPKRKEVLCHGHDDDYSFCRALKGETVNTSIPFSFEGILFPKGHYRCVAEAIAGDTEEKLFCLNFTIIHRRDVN
Excerpt: as §1, §2

| EC50 [1] [nM] | EC50 [2] [nM] | SMILES |
| --- | --- | --- |
| > 1000 | > 1000 | CCCCc1nc2c(N)nc3ccccc3c2n1Cc1ccc(CN)cc1 [Compound A, reference compound] |
| > 1000 | > 1000 | CCCCn1nc2c(N)nc3ccccc3c2c1Cc1ccc(CN)cc1 [Compound 1, 1-(4-(aminomethyl)benzyl)-2-butyl-2H-pyrazolo[3,4-c]quinolin-4-amine] |
